# In the PolyMetriX glass transition set:
# ± gives the standard deviation of the reports.
row,Compound,glass transition temperature
1,*Oc1ccc(CC(NC(=O)Cc2ccc(OC(=O)CC(C)CCC(*)=O)cc2)C(=O)OCCCCCC)cc1 (repeat unit),38.00 °C
2,*c1cccc(N2C(=O)c3ccc(Oc4ccc(C(=O)c5ccc(Oc6ccc7c(c6)C(=O)N(*)C7=O)cc5)cc4)cc3C2=O)c1 (repeat unit),239.00 °C
3,*c1ccc(Oc2ccc(N3C(=O)c4cccc(Oc5c(C)cc(Cc6cc(C)c(Oc7cccc8c7C(=O)N(*)C8=O)c(C)c6)cc5C)c4C3=O)cc2)cc1 (repeat unit),270.00 °C
4,*CC(*)(C)C(=O)OCCn1c2ccccc2c2ccccc21 (repeat unit),148.00 °C
5,*c1ccc(-c2nc3cc(-c4ccc5nc(*)c(-c6ccccc6)nc5c4)ccc3nc2-c2ccccc2)cc1 (repeat unit),391.50 °C
6,*CC(O)CN(CCO)S(=O)(=O)c1ccc(-c2ccc(S(=O)(=O)N(CCO)CC(O)COc3ccc(C(C)(C)c4ccc(O*)cc4)cc3)cc2)cc1 (repeat unit),76.00 °C
7,*c1ccc(Oc2ccc(C(C)(C)c3cccc(C(C)(C)c4ccc(Oc5ccc(-n6c(=O)c7cc8c(=O)n(*)c(=O)c8cc7c6=O)cc5)cc4)c3)cc2)cc1 (repeat unit),249.47 °C
8,*c1ccc(N2C(=O)c3ccc(Oc4ccc(C(C)(C)c5ccc(Oc6ccc7c(c6)C(=O)N(c6ccc8[nH]c(*)nc8c6)C7=O)cc5)cc4)cc3C2=O)cc1 (repeat unit),324.00 °C
9,*O[Si](*)(C)CCc1cc(-c2nnc(-c3ccc(OCCCCCCCCCCCC)cc3)o2)ccc1-c1nnc(-c2ccc(OCCCCCCCCCCCC)cc2)o1 (repeat unit),156.00 °C
10,*CC(*)(C)C(=O)OCCCCCCOc1ccc(C(=O)Oc2ccc(/N=N/c3ccc(C)cc3)c3ccccc23)cc1 (repeat unit),40.00 °C
11,*C(=O)Nc1ccc(C(=O)Nc2ccc(NC(=O)c3ccc4[nH]c(-c5ccc(-c6nc7cc(*)ccc7[nH]6)cc5)nc4c3)cc2)cc1 (repeat unit),300.00 °C
12,*CCCCCCOc1ccc(/C=C2\CCC/C(=C\c3ccc(O*)cc3)C2=O)cc1 (repeat unit),116.00 °C
13,*C(=O)c1ccc2c(c1)C(=O)N(c1ccc(Cc3ccc(N4C(=O)c5ccc(*)cc5C4=O)c(C(C)(C)C)c3)cc1C(C)(C)C)C2=O (repeat unit),213.00 °C
14,*Oc1ccc(S(=O)(=O)c2ccc(Oc3c(C)cc(C(C)(C)c4cc(C)c(*)c(C)c4)cc3C)cc2)cc1 (repeat unit),231.30 °C
15,*CCCCCCNC(=O)CCCCCCCCCCCCCCCCC(=O)N* (repeat unit),47.00 °C
16,*C(=O)Nc1ccc(NC(=O)c2ccc(N3C(=O)c4ccc(*)cc4C3=O)cc2)cc1 (repeat unit),297.50 °C
17,*c1ccc(C(=O)Nc2ccc(-c3ccccc3NC(=O)c3ccc(S(*)(=O)=O)cc3)cc2)cc1 (repeat unit),284.00 °C
18,*Oc1ccc(Oc2c(F)c(F)c(-c3c(F)c(F)c(*)c(F)c3F)c(F)c2F)cc1S(=O)(=O)O (repeat unit),120.00 °C
19,*Oc1ccc(OC(=O)c2ccc(C(*)=O)cc2Oc2ccc(F)cc2)cc1 (repeat unit),106.00 °C
20,*Oc1ccc(C(C)(C)c2ccc(OC(=O)CCCCC(*)=O)c(C)c2)cc1C (repeat unit),33.50 °C
21,*CC(*)C(=O)OCCCCCC (repeat unit),-57.00 °C
22,*CCOCCOC(=O)C(C)C(=O)O* (repeat unit),-29.00 °C
23,*Oc1ccc(C2(c3ccc(OC(=O)c4ccc(C(*)=O)cc4)cc3)CC3CC2C2CCCC32)cc1 (repeat unit),322.00 °C

row,Compound,glass transition temperature
1,*CC(=O)NCCCCCCNC(=O)COC(=O)CCCCC(=O)O* (repeat unit),19.00 °C
2,*Nc1ccc(C(c2ccc(NC(=O)c3ccc(C(*)=O)cc3)cc2)(P2(=O)Oc3ccccc3-c3ccccc32)P2(=O)Oc3ccccc3-c3ccccc32)cc1 (repeat unit),245.00 °C
3,*CC(*)C(=O)N1CC[NH+](CC)CC1 (repeat unit),72.50 °C
4,*NNC(=O)c1ccc(C(*)=O)cc1OCC (repeat unit),240.00 °C
5,*CC(OC(=O)C(Cc1ccccc1)NC(=O)OC(C)(C)C)C(COC(=O)O*)OC(=O)C(Cc1ccccc1)NC(=O)OC(C)(C)C (repeat unit),82.40 °C
6,*CCOc1ccc(S(=O)(=O)c2ccc(OCCOP(=O)(O*)Oc3ccc(OC)cc3)cc2)cc1 (repeat unit),52.00 °C
7,*CCCCCC(=O)Oc1ccc(Oc2ccc(OC(=O)CCCCCn3c(=O)c4cc5c(=O)n(*)c(=O)c5cc4c3=O)cc2)cc1 (repeat unit),91.00 °C
8,*c1ccc(Oc2ccc(Oc3ccc(NC(=O)c4ccc(Oc5ccc6c(c5)C(=O)N(*)C6=O)cc4)cc3)cc2)cc1 (repeat unit),242.00 °C
9,*C(=O)c1ccc2c(c1)C(=O)N(c1ccc(Oc3ccc(C(C)(C)c4ccc(Oc5ccc(N6C(=O)c7ccc(*)cc7C6=O)cc5)cc4)cc3)cc1)C2=O (repeat unit),256.00 ± 71 °C
10,*c1cc(SCCCCCCCCCCCC)c(*)s1 (repeat unit),33.00 °C
11,*c1ccc2oc(-c3ccc(C(c4ccccc4)(c4ccc(-c5nc6cc(C(*)(C(F)(F)F)C(F)(F)F)ccc6o5)cc4)C(F)(F)F)cc3)nc2c1 (repeat unit),310.00 °C
12,*Oc1ccc(-c2cc(-c3ccccc3)c(-c3ccc(OC(=O)c4ccc(C(*)=O)cc4-c4ccccc4)cc3)c(-c3ccccc3)c2-c2ccccc2)cc1 (repeat unit),225.00 °C
13,*c1ccc(-c2cc(CCCCCCCC)c(-c3ccc(-c4ccc(-c5sc(-c6ccc([Si](CCCC)(CCCC)[Si](*)(CCCC)CCCC)s6)cc5CCCCCCCC)s4)s3)s2)s1 (repeat unit),-10.00 °C
14,*Oc1ccc(/C=C2\CCC/C(=C\c3ccc(OC(=O)c4cccc(C(*)=O)c4)c(OC)c3)C2=O)cc1OC (repeat unit),57.86 °C
15,*Oc1cccc2ccc(Oc3ccc(NC(=O)c4ccc(C(c5ccc(C(=O)Nc6ccc(*)cc6)cc5)(C(F)(F)F)C(F)(F)F)cc4)cc3)cc12 (repeat unit),252.00 °C
16,*C(=O)Nc1cccc(NC(=O)c2ccc3[nH]c(-c4cccc(-c5nc6cc(*)ccc6[nH]5)c4)nc3c2)n1 (repeat unit),302.00 °C
17,*Oc1ccc(CC(NC(=O)Cc2ccc(OC(=O)CCCCCCCCC(*)=O)cc2)C(=O)OCC)cc1 (repeat unit),43.00 °C
18,*Oc1c(Cl)cc(C2(c3cc(Cl)c(OC(*)=O)c(Cl)c3)CC3CC2C2CCCC32)cc1Cl (repeat unit),281.00 °C
19,*CCOC(=O)C1=CCCCC(N2CCCC2)=C1C(=O)O* (repeat unit),352.50 °C
20,*/C=C/C(*)(C)C (repeat unit),-9.00 °C
21,*c1cccc(C(=O)Nc2ccc(Oc3ccc(C(C)(C)c4ccc(Oc5ccc(NC(=O)c6cccc(N7C(=O)c8ccc(-c9ccc%10c(c9)C(=O)N(*)C%10=O)cc8C7=O)c6)cc5)cc4)cc3)cc2)c1 (repeat unit),257.00 °C
22,*CC1CC(CNC(=O)c2cccc(C(=O)N*)c2)CC(C(C)(C)C)C1 (repeat unit),209.00 °C
